Reference: patent publication US10039729B2, “Use of kukoamine A and kukoamine B” (Tianjin Chase Sun Pharmaceutical Co., Ltd., priority 2010, dated 2018)
Where two headings read alike, the source gives them in different places.

Legend:
[1] = Affinity biosensor binding with LPS
Description: Immobilization of lipid A and CpG DNA: Using Optically-Based Affinity Biosensors technology, Lipid A, the biologic active centres of LPS, and CpG DNA were respectively, immobilized on the reacting surfaces of cuvettes in an IAsys plus affinity biosensor according to the manufacturer's instructions of IAsys Affinity Sensor. The end of hydrophobic side chain of lipid A was immobilized on cuvette with hydrophobic surface, and the phosphate group (active group of lipid A) at the other end was floating and exposing to the outside, which act as target spot of binding with active constituents for disease treatment in traditional Chinese medicine. The active constituents in solution were binded to lipid A through electrostatic interaction. Biotinylated CpG DNA was immobilized on the surface of a biotin cuvette by linking to avidin, which had been coated on the surface of a biotin cuvette, and then the unlabeled group of CpG DNA was floating and exposing to the outside, which act as target spot of binding with active constituents for disease treatment in traditional Chinese medicine. The active constituents in solution were binded to CpG DNA through the electrostatic interaction and embodiment.
Detection of the aqueous herbal extract: The crude drugs of 114 traditional Chinese herbs were pulverized. 1 g of each powder was added with 10 ml distilled water, boiled at 100° C. for 1.5 h, centrifuged at 4000 rpm for 20 min, filtrated and then collected the supernatant. 5 μl of aqueous herbal extracts of each herb were used to detect their binding with lipid A or CpG DNA. […]
9.1 Methods: KB was separately diluted with PBS to make solutions of 0.25, 0.5, 1, 2 and 4 μM; 5 μl of each solution was separately loaded; binding reaction of KB of various concentration with LPS and CpG DNA was assayed according to the methods in embodiment 1. The dissociation equilibrium constant (KD) of KB with LPS and CpG DNA was calculated using the IAsys FASTfit software. […]

RAW264.7 cells = assay: mRNA expression in RAW264.7 cells stimulated by LPS and CpG DNA (real-time PCR); format: cell-based, murine
Description: Cells preparation: Cells suspension was adjusted to 1×10^6/ml in DMEM supplemented with 10% (v/v) NCS; 2 ml of the above suspension was added into 6-well plates and cultured at 37° C. in a 5% CO2 humidified incubator for 2 h; for the purpose of experiment four groups were established: medium group, KB control group, stimulation group and KB treatment group; no reagent was added in medium group; KB control group was added with KB (200 μM); stimulation group was added with LPS (100 ng/ml) and CpG DNA (10 μg/ml); KB treatment group was added with KB (concentrations of 100 and 200 μM) in the meantime of adding LPS and CpG DNA; cells were cultured for 4 h and collected.
RNA extraction: Supernatant was sucked and discarded; 1 ml tripure was added into each well and resuspended with a pipet to make cells completely lysed; the lysate was transferred into 1.5 ml EP tube and incubated at room temperature for 5 min to ensure completed separation of ribonucleoprotein complex; 0.2 ml chloroform was added into EP tube; tube cap was closed and mixed by inversion for 15 sec; EP tube was incubated at room temperature for 10 min until layering of the liquid in tube, then centrifuged at 12000 g at 4_for 15 min; solution was separated into the three-phase; the upper solution (colorless liquid, approximately 0.4 ml) in EP tube was transferred into a new EP tube (DEPC treated); 0.5 ml isopropyl alcohol was added into EP tubes and the liquid was mixed by inversion for several times; EP tube was incubated at room temperature for 10 min to promote RNA precipitating, and centrifuged at 12000 g at 4_for 10 min; the supernatant was discarded; RNA precipitate was added with 1 ml 75% ethanol, vortex washed, and centrifuged at 12000 g at 4 for 10 min; then the supernatant was discarded; EP tube was dried at room temperature for 15 min to remove excessive ethanol; RNA precipitate was diluted with 20 μl ddH2O treated with DEPC, resuspended by pipetting in and out several times, incubated at 55 to 60 for 10 min, and then stored at −70.
Reverse transcription: Reverse-transcription reaction mixture (include: Rnase-free H2O, 10 μl; 5×RT buffer, 4 μl; dNTP mixture, 2 μl; RNase inhibitor, 1 μl; Oligo(dT)20, 1 μl; RNA, 1 μl; ReverTra Ace, 1 μl) was prepared on ice bath, mixed, incubated at 42° C. for 1 h and at 99° C. for 5 min, stored at −20.
PCR amplification: Primers were designed using Primer Premier 5 software by ourselves, and synthesized by Shanghai Sangon Biological Engineering Technology & Services Co., Ltd. The relevant primer sequences are as follows […]
Results were expressed as CT value, and converted into ratio of β-actin, the internal reference items, according to 2^−ΔΔCT methods. […]

Row | Compound | affinity with LPS ([1]; 4 μM solution, 5 μl loaded) | mRNA expressions of TNF-α, IL-6, iNOS and COX-2 up-regulated by CpG DNA (RAW264.7 cells; 100, 200 μM, CpG DNA 10 μg/ml, 4 h, dose-dependent) | mRNA expressions of TNF-α, IL-6, iNOS and COX-2 up-regulated by LPS (RAW264.7 cells; 100, 200 μM, LPS 100 ng/ml, 4 h, dose-dependent) | up-regulated expression of TLR4 induced by LPS and CpG DNA (RAW264.7 cells; KB 100 and 200 μM, RT-PCR) | up-regulated expression of TLR9 induced by LPS and CpG DNA (RAW264.7 cells; KB 100 and 200 μM, RT-PCR) | Kd ([1]; KB 0.25-4 μM, IAsys FASTfit, read-out: dissociation equilibrium constant (KD) with LPS) [µM] | Kd ([1]; with LPS, read-out: dissociation equilibrium constant (KD = kass/kdiss)) [µM]
1 | polymyxin B [PMB, reference compound] | high affinity | – | – | – | – | – | –
2 | NCCCN(CCCCNCCCNC(=O)CCc1ccc(O)c(O)c1)C(=O)CCc1ccc(O)c(O)c1 [KB, Kukoamine B] | – | significantly inhibit the mRNA expressions | significantly inhibit the mRNA expressions | significantly inhibited | significantly inhibited | 1.24 | 1.24
